According to patent US4315003A, “Compositions containing azo compounds and use thereof for therapeutic treatment” (priority 1979, dated 1982):

Key:
rats [1] = assay: Diuretic action in rats (urinary volume during 5 hours after oral administration); type: in vivo, rat (male, Wistar strain); conditions: urinary volume 5 hours, control = 100%
Experimental: A group of 5 male rats of Wistar strain having each a body weight ranging from 180 to 200 grams was used for each test compound. The rats were fasted overnight and then abstained from water two hours before the administration of the test compound. The test compound was prepared by suspending the compound in a 5% arabic gum-saline solution and administered orally to the rats in the amount of 25 ml per kg. of body weight.
The urine was collected during 5 hours after administration and its volume was measured. The diuretic actions of the test compounds were calculated as the urinary volume of the control group where no test compound was administered being as 100%.

rats [2] = assay: Hypertensive action in rats (blood pressure, oral, without anesthesia); type: in vivo, rat
Experimental: Hypertensive Action in Rats
A suspension of the test compound in a 5% arabic gum solution was orally to rats catheterized before more than 24 hours according to Mizokami et al. (Nihon Taishitsugaku Zasshi, 32, p.p. 59-63 (1969)).

[3] = tested on: isolated guinea-pig atria; assay: Cardiotropic action in isolated guinea-pig atria; set-up: species or system guinea-pig (male); conditions: Cavia porcellus, 30° C.; for inhibition at 1 µg/mL / activation at 1 µg/mL: 1 μg/ml; for inhibition at 3 µg/mL / activation at 3 µg/mL: 3 μg/ml
Experimental: Cardiotropic Action in Isolated Guinea-Pig Atria
The isolated atria from male Guinea-Pigs weighing about 350 grams were hanged in an organ bath filled with a Krebs-Henselite's solution and bubbled with a mixed gas (5% CO2 and 95% O2) at 30° C. A solution of the test compound in dimethylsulfoxide was added to the bath. The contractile force and beats were then measured and calibrated into a percentage increase of the contractile force and a percentage decrease of the beats.

rabbit eye mucosa = assay: Therapeutic action on hyperemia of rabbit eye mucosa (induced by 0.03 N sodium hydroxide); type: in vivo, rabbit (male Japanese albino); set-up: key: conjunctival erythema score per Fukui and Ikemoto standards; conditions: for Average Erythema Score After Treatment: 50 μl instilled, before treatment 1, solvent alone 1; for Average Erythema Score Before Treatment: baseline
Experimental: Therapeutic Action on Hyperemia of Rabbit Eye Mucosa
100 μl of 0.03 N sodium hydroxide was instillated into one eye to induce hyperemia in male Japanese albino rabbits weighting about 3 Kg. A group of 3 rabbits was used for test, which were caused an erythema score 1 on their conjunctive based on the standards of Fukui and Ikemoto (Gendai-no-Rinshao, 4, pp. 277 (1970)). The test compound was dissolved in a 10% NIKKOL HCO-60 (trademark: Nikko Chemical Co., Ltd.) and instilled to the test rabbit at a rate of 50 μl.

Acute toxicity in mice = conditions: mouse, in vivo, deaths for seven days
Experimental: A group of 10 male mice of ddY strain weighing about 25 grams was administered orally or intraperitoneally with a suspension of the test compound in a 5% arabic gum solution in the amount of 10 ml per kg. of body weight. The LD50 values were calculated by means of the Wilcoxon-Litchfield method on the number of mice died for seven days after administration.

Solubility = type: physicochemical
[4] = read-out: Percentage Decrease in Beats
[5] = read-out: Percentage Increase of Contractile Force

| SMILES | Average Erythema Score Before Treatment (rabbit eye mucosa) | LD50 at 168 h (Acute toxicity in mice; ip) | LD50 at 168 h (Acute toxicity in mice; po, orally) | Solubility in acetone (Solubility) | Solubility in hexane (Solubility) | Solubility in methanol (Solubility) | Solubility in water (Solubility) | Diuretic Activity (rats [1]; 5.0 mg/kg) | Diuretic Activity (rats [1]; 10.0 mg/kg) | Diuretic Activity (rats [1]; 20.0 mg/kg) | other results |
| --- | --- | --- | --- | --- | --- | --- | --- | --- | --- | --- | --- |
| COc1ccc(Cl)cc1N=Nc1ncc[nH]1 [Compound A, 2-[(2-methoxy-5-chlorophenyl)azo]-1H-imidazole] | 1 | 795 mg/kg | 1280 mg/kg | readily soluble | less soluble | readily soluble | less soluble |  |  |  | Diuretic Activity (rats [1]; 0.5 mg/kg): 133%; Diuretic Activity (rats [1]; 1.0 mg/kg): 183%; Diuretic Activity (rats [1]; 2.0 mg/kg): 329%; Variation in Blood Pressures, Duration Period (rats [2]; 1 mg/kg): 55 min; Variation in Blood Pressures, Percentage Increase (rats [2]; 1 mg/kg): 49%; inhibition at 1 µg/mL [3, 4]: 5.4%; activation at 1 µg/mL [3, 5]: 15.4%; Average Erythema Score After Treatment (rabbit eye mucosa; 0.05%): 0.33 |
| COc1ccc(F)cc1N=Nc1ncc[nH]1 [Compound B, 2-[(2-methoxy-5-fluorophenyl)azo]-1H-imidazole] | 1 | 322 mg/kg | 462 mg/kg | readily soluble | less soluble | readily soluble | less soluble |  |  |  | Diuretic Activity (rats [1]; 1.0 mg/kg): 154%; Diuretic Activity (rats [1]; 2.0 mg/kg): 275%; Variation in Blood Pressures, Duration Period (rats [2]; 2 mg/kg): 65 min; Variation in Blood Pressures, Percentage Increase (rats [2]; 2 mg/kg): 42%; inhibition at 1 µg/mL [3, 4]: 2.3%; activation at 1 µg/mL [3, 5]: 11.5%; Average Erythema Score After Treatment (rabbit eye mucosa; 0.05%): 0.33 |
| COc1ccc(Br)cc1N=Nc1ncc[nH]1 [Compound C, 2-[(2-methoxy-5-bromophenyl)azo]-1H-imidazole] | 1 | > 1000 mg/kg | > 1500 mg/kg | readily soluble | sparingly soluble | readily soluble | sparingly soluble | 171% | 283% |  | Variation in Blood Pressures, Duration Period (rats [2]; 5 mg/kg): 70 min; Variation in Blood Pressures, Percentage Increase (rats [2]; 5 mg/kg): 40%; inhibition at 3 µg/mL [3, 4]: 4.2%; activation at 3 µg/mL [3, 5]: 7.4%; Average Erythema Score After Treatment (rabbit eye mucosa; 0.2%): 0.33 |
| COc1ccc(I)cc1N=Nc1ncc[nH]1 [Compound D] | 1 | > 1000 mg/kg | > 1500 mg/kg | readily soluble | sparingly soluble | readily soluble | sparingly soluble | 138% | 183% |  | Variation in Blood Pressures, Duration Period (rats [2]; 5 mg/kg): 50 min; Variation in Blood Pressures, Percentage Increase (rats [2]; 5 mg/kg): 35%; inhibition at 3 µg/mL [3, 4]: 3.6%; activation at 3 µg/mL [3, 5]: 6.9%; Average Erythema Score After Treatment (rabbit eye mucosa; 0.2%): 0.5 |
| COc1ccccc1N=Nc1ncc[nH]1 [Compound E, 2-[(2-methoxyphenyl)azo]-1H-imidazole] | 1 | 630 mg/kg | 1010 mg/kg | readily soluble | sparingly soluble | readily soluble | sparingly soluble |  | 175% | 206% | Variation in Blood Pressures, Duration Period (rats [2]; 10 mg/kg): 85 min; Variation in Blood Pressures, Percentage Increase (rats [2]; 10 mg/kg): 52%; inhibition at 10 µg/mL ([3]; 10 μg/ml, read-out: Percentage Decrease in Beats): 2.2%; activation at 10 µg/mL ([3]; 10 μg/ml, read-out: Percentage Increase of Contractile Force): 5.7%; Average Erythema Score After Treatment (rabbit eye mucosa; 0.1%): 0.5 |
| NS(=O)(=O)c1cc(C(=O)O)c(NCc2ccco2)cc1Cl [furosemide, reference compound] |  |  |  |  |  |  |  | 113% | 188% | 292% |  |
| Nc1nc(N)c2nc(-c3ccccc3)c(N)nc2n1 [triamterene, reference compound] |  |  |  |  |  |  |  |  | 192% | 242% |  |
